According to patent US8022180B2, “Method for preventing and treating Alzheimer's disease” (Affiris Forschungs-und Entwicklungs GmbH, priority 2004, dated 2011):
Entries after “also recorded” stand apart in the source; their conditions may differ. Where a SMILES comes first, the peptide text is derived from it. Where no end group is shown, it is not given here.

Tested on: monoclonal antibody specific for the natural N-terminal Aβ42 sequence DAEFRH
Experiment: Inhibition assay: mimotope peptides compete with plate-bound DAEFRH-BSA for recognition by the biotinylated monoclonal antibody (ELISA)
Type: binding, mice
Parameters: key to inhibition (s/m/—): s: strong inhibition; m: moderate inhibition; —: no inhibition
Conditions: for inhibition of epitope recognition by the monoclonal antibody (in words): FIGS. 2-9; for inhibition (s/m/—): peptides of the new screening round and 5mers with non natural amino acids; for Inhibitory capacity of mimotopes: summary Tables 1 and 2, in words; for concentration at which the peptide is only inhibitory: only inhibitory at a (relatively) high concentration
Source text: 1.: Generation of Monoclonal Antibodies (mAb) to Detect Aβ42-Derived Peptide Species with Free N-Terminus (Free Aspartic Acid at the N-Terminus)
Mice are vaccinated with the 6mer peptide DAEFRH (SEQ ID NO: 26) (natural N-terminal Aβ42 sequence) linked to the protein bovine serum albumin BSA (to make use of the hapten-carrier-effect), emulsified in CFA (first injection) and IFA (booster injections). DAEFRH (SEQ ID NO: 26)-peptide-specific, antibody-producing hybridomas are detected by ELISA (DAEFRH (SEQ ID NO: 26)-peptide-coated ELISA plates).
(§1) FIGS. 2 and 3 describe the results of inhibition assays performed with mimotope peptides included in and obtained from the 5 libraries (as described). The mimotope peptides compete with the original epitope for recognition by the monoclonal antibody. Original epitope and mimotope peptides contain an additional C at the C-terminus for coupling to a protein carrier (if desired).
(§2) After blocking with PBS/BSA 1% (200 μl/well, 12 h, 4° C.), the plates are washed 3× times with PBS/Tween. Then, biotinylated monoclonal antibody (1:2000, 50 μl/well) and peptides (50 μl/well) at 50, 5, 0.5, 0.05, 0.005, and 0.0005 μg/ml are added for 20 min. at 37° C. The plates are washed 3× times with PBS/Tween and are incubated with horseradish peroxidase (HRP)-labeled streptavidin (100 μl/well, 30 min, RT). The plates are washed 5× times with PBS/Tween and are incubated with ABTS+H2O2 (0.1% w/v, 10 to 45 min) and the reaction is stopped with citric acid followed by photometric evaluation (wavelength 405 nm).
as §1, with “4” for “2”, “5” for “3”, “C-terminus (position 7)” for “C-terminus”
as §2, with “different concentrations” for “50, 5, 0.5, 0.05, 0.005, and 0.0005 μg/ml”
as §1, with “6 to 8” for “2 and 3”, “2” for “5”, “described above).” for “described).”, “C-terminus (position 7 or position 8, respectively)” for “C-terminus”

Molecule | inhibition of epitope recognition by the monoclonal antibody (in words) | inhibition (s/m/—) | Inhibitory capacity of mimotopes | concentration at which the peptide is only inhibitory | IC50 (inhibition of monoclonal antibody binding to the original epitope) (competition ELISA, plate-bound DAEFRH-BSA, peptides 20 min at 37° C.)
SAEFRTQ [Peptide 4015] | strongly block epitope recognition | s |  |  | 
ATYAYWN [Peptide 4038] | not inhibitory at the concentrations tested | — |  |  | 
CC[C@H](C)[C@H](NC(=O)[C@H](CCCNC(=N)N)NC(=O)[C@H](CC(C)C)NC(=O)[C@H](CCC(=O)O)NC(=O)[C@H](CCCNC(=N)N)NC(=O)[C@@H](N)CC(=O)O)C(=O)N[C@@H](CS)C(=O)O [Peptide 1235, DRELRI] | block epitope recognition |  | strong |  | 
CC[C@H](C)[C@H](NC(=O)[C@H](CCCNC(=N)N)NC(=O)[C@H](CC(C)C)NC(=O)[C@H](CCC(=O)O)NC(=O)[C@H](Cc1c[nH]c2ccccc12)NC(=O)[C@@H](N)CC(=O)O)C(=O)N[C@@H](CS)C(=O)O [Peptide 3002, DWELRI] | block epitope recognition |  | intermediate |  | 
N=C(N)NCCC[C@H](NC(=O)[C@H](Cc1ccccc1)NC(=O)[C@H](CCC(=O)O)NC(=O)[C@H](Cc1ccccc1)NC(=O)[C@@H](N)CO)C(=O)NCC(=O)N[C@@H](CS)C(=O)O [Peptide 3009, SFEFRG] |  |  | weak |  | 
DISFRG [Peptide 3010] | not inhibitory at the concentrations tested |  | none |  | 
N=C(N)NCCC[C@H](NC(=O)[C@H](Cc1ccccc1)NC(=O)[C@H](CCC(=O)O)NC(=O)[C@H](Cc1ccc(O)cc1)NC(=O)[C@@H](N)CC(=O)O)C(=O)NCC(=O)N[C@@H](CS)C(=O)O [Peptide 3007, DYEFRG] | block epitope recognition |  | strong |  | 
C[C@H](NC(=O)[C@H](CC(=O)O)NC(=O)[C@H](CCCNC(=N)N)NC(=O)[C@H](Cc1ccccc1)NC(=O)[C@H](CCC(=O)O)NC(=O)[C@H](Cc1c[nH]c2ccccc12)NC(=O)[C@@H](N)CC(=O)O)C(=O)N[C@@H](CS)C(=O)O [Peptide 1241, DWEFRDA] | block epitope recognition |  | strong |  | 
GAEFRFT [Peptide 4014] | moderately inhibit binding | m |  |  | 
CC(C)C[C@H](NC(=O)[C@@H](N)CCC(=O)O)C(=O)N[C@@H](CCC(=O)O)C(=O)N[C@@H](Cc1ccccc1)C(=O)N[C@@H](CCCNC(=N)N)C(=O)NCC(=O)N[C@@H](CS)C(=O)O [Peptide 3008, ELEFRG] |  |  | weak |  | 
C[C@H](NC(=O)[C@@H](N)CCC(=O)O)C(=O)N[C@@H](CCC(=O)O)C(=O)N[C@@H](Cc1ccccc1)C(=O)N[C@@H](CCCNC(=N)N)C(=O)NCC(=O)N[C@@H](CS)C(=O)O [Peptide 3006, EAEFRG] | block epitope recognition |  | strong |  | 
CCC[C@H](NC(=O)[C@H](CCC(=O)O)NC(=O)[C@H](CCCCN)NC(=O)[C@@H](N)CC(=O)O)C(=O)N[C@@H](CCCNC(=N)N)C(=O)N[C@@H](CS)C(=O)O [Peptide 4063, DKE(Nva)R] (HELM PEPTIDE1{D.K.E.[Nva].R.C}$$$$V2.0) | block epitope recognition | m |  |  | 
SWFRNP [Peptide 4019] | not inhibitory at the concentrations tested | — |  |  | 
YREFRI [Peptide 3004] | block epitope recognition |  | weak | 50 µg/mL | 
DNEFRSP [Peptide 4012] | moderately inhibit binding | s |  |  | 
SWEFRNP [Peptide 4017] | strongly block epitope recognition | s |  |  | 
DAEFRH (not fully specified (C-terminus); listed as Homo sapiens) [Peptide 1737, reference compound] | inhibits recognition by the monoclonal antibody; also recorded: can successfully compete |  |  |  | 

Molecule | inhibition of epitope recognition by the monoclonal antibody (in words) | inhibition (s/m/—) | Inhibitory capacity of mimotopes | concentration at which the peptide is only inhibitory | IC50 (inhibition of monoclonal antibody binding to the original epitope) (competition ELISA, plate-bound DAEFRH-BSA, peptides 20 min at 37° C.)
CCCC[C@H](NC(=O)[C@H](CCC(=O)O)NC(=O)[C@H](CCCCN)NC(=O)[C@@H](N)CC(=O)O)C(=O)N[C@@H](CCCNC(=N)N)C(=O)N[C@@H](CS)C(=O)O [Peptide 4062, DKE(Nle)R] (HELM PEPTIDE1{D.K.E.[Nle].R.C}$$$$V2.0) | block epitope recognition | m |  |  | 
VPTSALA [Peptide 4037] | not inhibitory at the concentrations tested | — |  |  | 
GREFRN [Peptide 4003] | block epitope recognition |  | weak | 10 µg/mL | 
SWEFRLY [Peptide 4018] | strongly block epitope recognition | s |  |  | 
DAEFRWP [Peptide 4011] | strongly block epitope recognition | s |  |  | 
N=C(N)NCCC[C@H](NC(=O)[C@H](CC1CCCCC1)NC(=O)[C@H](CCC(=O)O)NC(=O)[C@H](CCCCN)NC(=O)[C@@H](N)CC(=O)O)C(=O)N[C@@H](CS)C(=O)O [Peptide 4064, DKEC(Cha)R] | block epitope recognition | m |  |  | 
GSEFRDY [Peptide 4013] | moderately inhibit binding | m |  |  | 
DIGWRG [Peptide 3011] | not inhibitory at the concentrations tested |  | none |  | 
YREFFI [Peptide 3003] | not able to inhibit binding |  | none |  | 
N=C(N)NCCC[C@H](NC(=O)[C@H](Cc1ccccc1)NC(=O)[C@H](CCC(=O)O)NC(=O)[C@H](Cc1ccc(O)cc1)NC(=O)[C@@H](N)CCC(=O)O)C(=O)NCC(=O)N[C@@H](CS)C(=O)O [Peptide 1239, EYEFRG] | block epitope recognition |  | intermediate |  | more than 0.5 μg/ml
WHWSWR [Peptide 4004] | not able to inhibit binding |  | none |  | 
CC[C@H](C)[C@H](NC(=O)[C@H](CCCNC(=N)N)NC(=O)[C@H](CC(C)C)NC(=O)[C@H](CCC(=O)O)NC(=O)[C@H](CCCCN)NC(=O)[C@@H](N)CC(=O)O)C(=O)N[C@@H](CS)C(=O)O [Peptide 3001, DKELRI] | block epitope recognition |  | strong |  | 
SAEFRAT [Peptide 4016] | strongly block epitope recognition | s |  |  | 
CC[C@H](C)[C@H](NC(=O)[C@H](CCCCN)NC(=O)[C@H](CC(C)C)NC(=O)[C@H](CCC(=O)O)NC(=O)[C@H](CCCNC(=N)N)NC(=O)[C@@H](N)CC(=O)O)C(=O)N[C@@H](CS)C(=O)O [Peptide 1237, DRELKI] | block epitope recognition |  | weak |  | 
KKELRI [Peptide 1234] | hardly inhibitory at the concentrations tested |  | none |  | 
C[C@H](NC(=O)[C@@H](N)Cc1ccc(O)cc1)C(=O)N[C@@H](CCC(=O)O)C(=O)N[C@@H](Cc1ccccc1)C(=O)N[C@@H](CCCNC(=N)N)C(=O)NCC(=O)N[C@@H](CS)C(=O)O [Peptide 3005, YAEFRG] | block epitope recognition |  | intermediate |  | 
